According to patent US11400079B2, “Antibacterial monobactams” (University of Notre Dame du Lac, priority 2017, dated 2022):
Counter-ions that a name gives are not always drawn. Like-named read-outs stand apart in the source and are kept apart here.

Columns and labels:
[1] = test system: A. baumannii ATCC BAA 1793; test: MIC antibacterial assay (iron depleted media); format: cell-based, Acinetobacter baumannii; conditions: A. baumannii ATCC BAA 1793
Method: (§1) General Methods. All solvents and reagents were obtained from commercial sources and used without further purification unless otherwise stated. General methods of purification of compounds involved the use column chromatography with silica gel (230-400 mesh) purchased from Silicycle, Quebec City, Canada. The reactions were monitored by TLC on precoated Merck 60 F254 silica gel plates and visualized using UV light (254 nm).
(§2) Antibacterial assays were performed using iron depleted media as described previously (J. Med. Chem. 2017, 60, 4577).

[2] = test system: A. baumannii ARC 5079; test: MIC antibacterial assay (iron depleted media); format: cell-based, Acinetobacter baumannii; conditions: A. baumannii ARC 5079
Method: as §1, §2

[3] = test system: A. baumannii ATCC BAA 1800; test: MIC antibacterial assay (iron depleted media); format: cell-based, Acinetobacter baumannii; conditions: tazobactam alone @ 10 μg/ml
Method: as §1, §2

[4] = test system: A.baumannii ISR14-005; test: MIC antibacterial assay (iron depleted media); format: cell-based, Acinetobacter baumannii; conditions: read-out: MIC
Method: as §1, §2

[5] = test system: A. baumannii ATCC 17978-PNT-320; test: MIC antibacterial assay (iron depleted media); format: cell-based, Acinetobacter baumannii
Method: as §1, §2

[6] = test system: P. aeruginosa ARC 3502; test: MIC antibacterial assay (iron depleted media); format: cell-based; conditions: Pseudomonas aeruginosa, read-out: MIC
Method: as §1, §2

[7] = test system: P. aeruginosa ARC 3506; test: MIC antibacterial assay (iron depleted media); format: cell-based; conditions: Pseudomonas aeruginosa, ARC3506, P. aeruginosa ARC 3506, read-out: MIC
Method: as §1, §2

[8] = test system: B. dolosa AU0018; test: MIC antibacterial assay (iron depleted media); format: cell-based; conditions: Burkholderia dolosa; B. dolosa AU0018; MH2 broth with 160 μM bipyridyl added; read-out: MIC
Method: as §1, §2

[9] = test system: P. aeruginosa ISR-14-003; test: MIC antibacterial assay (iron depleted media); format: cell-based; conditions: read-out: MIC
Method: as §1, §2

[10] = test system: P. aeruginosa ISR-14-004; test: MIC antibacterial assay (iron depleted media); format: cell-based; conditions: read-out: MIC
Method: as §1, §2

[11] = test system: Gram-negative bacteria; test: Antibacterial activity against tested Gram-negative strains (summary in words); format: cell-based; conditions: tested strains of Gram-negative bacteria
Method: as §1, §2

[12] = test system: A. baumannii ATCC BAA 1797; test: MIC antibacterial assay (iron depleted media); format: cell-based; conditions: Acinetobacter baumannii, BAA1797; A. baumannii ATCC BAA 1797; MH2 broth with 160 μM bipyridyl added; read-out: MIC
Method: as §1, §2

[13] = test system: A. baumannii ATCC17978-PNT-165; test: MIC antibacterial assay (iron depleted media); format: cell-based; conditions: Acinetobacter baumannii
Method: as §1, §2

[14] = test system: Proteus mirabilis X235; test: MIC antibacterial assay (iron depleted media); format: cell-based; conditions: Proteus mirabilis X235; MH2 broth with 160 μM bipyridyl added; read-out: MIC
Method: as §1, §2

[15] = test system: P. aeruginosa 01; test: MIC antibacterial assay (iron depleted media); format: cell-based; conditions: Pseudomonas aeruginosa; P. aeruginosa 01; MH2 broth with 160 μM bipyridyl added; read-out: MIC
Method: as §1, §2

[16] = test system: Enterobacter aerogenes X816; test: MIC antibacterial assay (iron depleted media); format: cell-based; conditions: Klebsiella aerogenes; Enterobacter aerogenes X816; MH2 broth with 160 μM bipyridyl added; read-out: MIC
Method: as §1, §2

[17] = test system: Citrobacter freuendii ATCC 29063; test: MIC antibacterial assay (iron depleted media); format: cell-based; conditions: ATCC29063; Citrobacter freuendii ATCC 29063; MH2 broth with 160 μM bipyridyl added; read-out: MIC
Method: as §1, §2

[18] = test system: E. coli DCO; test: MIC antibacterial assay (iron depleted media); format: cell-based; conditions: Escherichia coli; E. coli DCO; MH2 broth with 160 μM bipyridyl added; read-out: MIC
Method: as §1, §2

[19] = test system: P. aeruginosa KW799/wt; test: MIC antibacterial assay (iron depleted media); format: cell-based; conditions: Pseudomonas aeruginosa; P. aeruginosa KW799/wt; MH2 broth with 160 μM bipyridyl added; read-out: MIC
Method: as §1, §2

[20] = test system: S. aureus SG 511; test: MIC antibacterial assay (iron depleted media); format: cell-based; conditions: Staphylococcus aureus, SG511; S. aureus SG 511; MH2 broth with 160 μM bipyridyl added; read-out: MIC
Method: as §1, §2

[21] = test system: Salmonella typhimurium ATCC13311; test: MIC antibacterial assay (iron depleted media); format: cell-based; conditions: Salmonella enterica; Salmonella typhimurium ATCC13311; MH2 broth with 160 μM bipyridyl added; read-out: MIC
Method: as §1, §2

[22] = test system: A. baumannii ATCC 17961; test: MIC antibacterial assay (iron depleted media); format: cell-based; conditions: Acinetobacter baumannii, ATCC17961; A. baumannii ATCC 17961; MH2 broth with 160 μM bipyridyl added; read-out: MIC
Method: as §1, §2

[23] = compound alone, MH2 broth with 160 μM bipyridyl added

Molecule: C[C@]1(Cn2ccnn2)[C@H](C(=O)O)N2C(=O)C[C@H]2S1(=O)=O [Tazobactam, tazobactam, reference compound]
- inhibition ([1]; tazobactam alone @ 10 μg/ml): very slight
- MIC ([2]; Acinetobacter baumannii, ARC5079, tazobactam alone, read-out: MIC): > 10 µg/mL
- inhibition [3]: very slight
- MIC ([4]; Acinetobacter baumannii, ISR14005, A. baumannii ISR14-005, tazobactam alone): > 20 µg/mL
- MIC ([5]; Acinetobacter baumannii, ATCC17978): < 10 µg/mL
- MIC ([6]; ARC3502, tazobactam alone): > 10 µg/mL
- MIC ([7]; tazobactam alone): > 10 µg/mL
- MIC [8]: > 50 µM
- MIC ([9]; Pseudomonas aeruginosa, ISR14003, P. aeruginosa ISR-14-003, tazobactam alone): > 20 µg/mL
- MIC ([10]; Pseudomonas aeruginosa, ISR14004, P. aeruginosa ISR-14-004, tazobactam alone): > 20 µg/mL

Molecule: CO/N=C(\C(=O)NC1C(=O)N(S(=O)(=O)O)[C@H]1CSCCN)c1cnc(N)s1 (stereo partly shown) [Compound 35, (E)-3-(2-(2-aminothiazol-5-yl)-2-(methoxyimino)acetamido)-2-(((2-ammonioethyl)thio)methyl)-4-oxoazetidine-1-sulfonate, potassium salt]
- antibacterial activity (in words) [11]: moderately active
- MIC ([4]; Acinetobacter baumannii, ISR14005, A. baumannii ISR14-005 (clinical isolate), compound alone, MH2 broth with 160 μM bipyridyl added): > 50 µM
- MIC [12]: > 50 µM
- MIC [13]: 50 µM
- MIC ([6]; ARC3502, compound alone, MH2 broth with 160 μM bipyridyl added): > 50 µM
- MIC [14]: 12.5 µM
- MIC [15]: > 50 µM
- MIC [16]: 0.2 µM
- MIC [17]: 12.5 µM
- MIC [18]: 25 µM
- MIC [19]: > 50 µM
- MIC [7, 23]: > 50 µM
- MIC ([9]; Pseudomonas aeruginosa, ISR14003, P. aeruginosa ISR-14-003 (clinical isolate), compound alone, MH2 broth with 160 μM bipyridyl added): > 50 µM
- MIC [20]: > 50 µM
- MIC [21]: 12.5 µM
- MIC ([10]; Pseudomonas aeruginosa, ISR14004, P. aeruginosa ISR-14-004 (clinical isolate), compound alone, MH2 broth with 160 μM bipyridyl added): > 50 µM
- MIC [22]: 50 µM

Molecule: Polymixin B [reference compound]
- antibacterial activity (in words) [11]: excellent activity
- MIC ([1]; MH2 broth with 160 μM bipyridyl added): <0.025 µM
- MIC [2, 23]: <0.025 to 0.1 µM
- MIC ([4]; A. baumannii ISR14-005 (clinical isolate), compound alone, MH2 broth with 160 μM bipyridyl added): <0.025 µM
- MIC ([5]; A. baumannii ATCC 17978-PNT-320 (cephalosporinase producing organism), MH2 broth with 160 μM bipyridyl added): <0.025 µM
- MIC ([9]; P. aeruginosa ISR-14-003 (clinical isolate), compound alone, MH2 broth with 160 μM bipyridyl added): 0.1 µM
- MIC ([10]; P. aeruginosa ISR-14-004 (clinical isolate), compound alone, MH2 broth with 160 μM bipyridyl added): 0.05 µM
